The results in this text go back to patent US20090093469A1, “Phenylaminopropanol Derivatives and Methods of Their Use” (WYETH, priority 2004, published 2009).

Counter-ions that a name gives are not always drawn. Like-named read-outs stand apart in the source and are kept apart here.

This experiment addresses T1, hNET (Homo sapiens, UniProt P23975).
T1 construct: expressed in transfected cells
The experiment is described as follows: Norepinephrine (NE) uptake assay in MDCK-Net6 cells stably transfected with human hNET. It counts as cell-based.

Setting [1] is: MDCK-Net6, read-out: % Inhibition @ 1 μM (hNET).
Where [2] appears, read: test compound 1 μM, [3H]NE uptake, MDCK-Net6 cells, read-out: % Inhibition @ 1 μM (hNET).

T1 sequence (P23975 whole entry): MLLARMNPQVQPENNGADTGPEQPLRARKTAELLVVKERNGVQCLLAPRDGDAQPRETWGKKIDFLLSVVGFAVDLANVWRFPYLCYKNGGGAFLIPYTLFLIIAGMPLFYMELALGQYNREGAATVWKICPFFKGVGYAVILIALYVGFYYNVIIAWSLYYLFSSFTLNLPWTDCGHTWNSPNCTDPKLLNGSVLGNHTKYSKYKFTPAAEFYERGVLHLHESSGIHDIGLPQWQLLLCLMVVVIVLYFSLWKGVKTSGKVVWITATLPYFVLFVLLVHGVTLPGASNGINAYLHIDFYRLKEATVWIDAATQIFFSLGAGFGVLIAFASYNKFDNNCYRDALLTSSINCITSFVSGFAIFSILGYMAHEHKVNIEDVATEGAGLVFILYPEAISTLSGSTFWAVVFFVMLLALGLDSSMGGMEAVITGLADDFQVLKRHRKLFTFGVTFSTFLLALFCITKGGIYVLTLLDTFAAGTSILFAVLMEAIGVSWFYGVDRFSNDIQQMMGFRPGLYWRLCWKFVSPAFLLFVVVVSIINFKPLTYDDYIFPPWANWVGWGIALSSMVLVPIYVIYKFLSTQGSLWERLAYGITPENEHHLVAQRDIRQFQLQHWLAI

With `CNC[C@@H](O)[C@H](c1ccccc1)n1c(=O)n(C)c2ccccc21` [Example 205, 1-[(1S,2R)-2-hydroxy-3-(methylamino)-1-phenylpropyl]-3-methyl-1,3-dihydro-2H-benzimidazol-2-one hydrochloride], the inhibition at 1 µM under setting [1] is 82.9%.

As for `CNC[C@@H](O)[C@H](c1cccc(F)c1)n1ccc2ccc(F)cc21` [Example 133, (1S,2R)-1-(6-fluoro-1H-indol-1-yl)-1-(3-fluorophenyl)-3-(methylamino)propan-2-ol hydrochloride], under setting [1], the inhibition at 1 µM was found to be 96.4%.

`O[C@@H](CNCc1ccncc1)[C@@H](c1ccccc1)n1ccc2ccccc21` (racemic) [Example 14, (1RS,2SR)-1-(1H-indol-1-yl)-1-phenyl-3-[(pyridin-4-ylmethyl)amino]propan-2-ol hydrochloride]: under setting [2], the inhibition at 1 µM was 24.4%.

As for `CNCC(O)[C@H](c1ccccc1)n1ccc2ccccc21` (stereo in doubt) [Example 23, (1S,2R)-1-(1H-indol-1-yl)-3-(methylamino)-1-phenylpropan-2-ol hydrochloride], under setting [1], the inhibition at 1 µM amounted to 89.7%.

As for `CNC[C@@H](O)[C@H](c1cccc(F)c1)n1ccc2c(C)cccc21` [Example 96, ((1S,2R)-1-(3-fluorophenyl)-3-(methylamino)-1-(4-methyl-1H-indol-1-yl)propan-2-ol hydrochloride], the inhibition at 1 µM under setting [1] came to 98.2%.

As to `CNC[C@@H](O)[C@H](c1ccccc1)N1C(=O)C2(CCCCC2)c2ccccc21` [Example 104, 1′-[(1S,2R)-2-hydroxy-3-(methylamino)-1-phenylpropyl]spiro[cyclo-hexane-1,3′-indol]-2′(1′H)-one hydrochloride], the inhibition at 1 µM under setting [2] amounted to 99.4%.

On to `CNC[C@@H](O)[C@H](c1ccccc1)n1ccc2ccncc21` [Example 84, (1S,2R)-3-methylamino-1-phenyl-1-(1H-pyrrolo[2,3-c]pyridin-1-yl) propan-2-ol dihydrochloride], for which the inhibition at 1 µM under setting [2] was found to be 40.9%.

Turning to `CNC[C@@H](O)[C@H](c1ccccc1)n1cc(C)c2cccc(F)c21` [Example 179, (1S,2R)-1-(7-fluoro-3-methyl-1H-indol-1-yl)-3-(methylamino)-1-phenylpropan-2-ol hydrochloride], under setting [2], the inhibition at 1 µM was found to be 99.8%.

For `Cc1cn([C@H](c2ccccc2)[C@@H](O)CN)c2ccccc12` (racemic) [Example 24, (1RS,2SR)-3-amino-1-(3-methyl-1H-indol-1-yl)-1-phenylpropan-2-ol hydrochloride], under setting [1], the inhibition at 1 µM was found to be 57.2%.

For the molecule `CNC[C@H](O)[C@@H](c1ccccc1)n1ccc2cc(Cl)ccc21` (racemic) [Example 26, (1RS,2SR)-1-(5-chloro-1H-indol-1-yl)-3-(methylamino)-1-phenylpropan-2-ol hydrochloride], the inhibition at 1 µM under setting [1] was determined as 54%.

As to `CNC[C@@H](O)[C@H](c1ccccc1)N1C(=O)C(C)(C)c2ccc(F)cc21` [Example 195, 6-fluoro-1-[(1S,2R)-2-hydroxy-3-(methylamino)-1-phenylpropyl]-3,3-dimethyl-1,3-dihydro-2H-indol-2-one hydrochloride], under setting [2], the inhibition at 1 µM is 91%.

As for `CNC[C@@H](O)[C@H](c1cccc(F)c1)n1cc(-c2cccc(C(F)(F)F)c2)c2ccccc21` [Example 177, (1S,2R)-1-(3-fluorophenyl)-3-(methylamino)-1-{3-[3-(trifluoromethyl)phenyl]-1H-indol-1-yl}propan-2-ol hydrochloride], the inhibition at 1 µM under setting [2] amounted to 29.9%.

Turning to `CCNC[C@H](O)[C@@H](c1ccccc1)n1ccc2ccccc21` (racemic) [Example 5, (1RS,2SR)-3-(ethylamino)-1-(1H-indol-1-yl)-1-phenylpropan-2-ol hydrochloride], under setting [1], the inhibition at 1 µM worked out at 58.1%.

In the case of `CNC[C@@H](O)[C@H](c1cccc(F)c1)n1ccc2c(C#N)cccc21` [Example 131, 1-[(1S,2R)-1-(3-fluorophenyl)-2-hydroxy-3-(methylamino)propyl]-1H-indole-4-carbonitrile hydrochloride], the inhibition at 1 µM under setting [2] stood at 63.1%.

Consider `CNC[C@@H](O)[C@H](c1cccc(F)c1)N1C(=O)C(C)(C)c2cccc(F)c21` [Example 101, 7-fluoro-1-[(1S,2R)-1-(3-fluorophenyl)-2-hydroxy-3-(methylamino)propyl]-3,3-dimethyl-1,3-dihydro-2H-indol-2-one hydrochloride], for which, under setting [2], the inhibition at 1 µM was 98.6%.

As to `CNC[C@@H](O)[C@H](c1cccc(F)c1)n1ccc2cccc(Br)c21` [Example 135, (1S,2R)-1-(7-bromo-1H-indol-1-yl)-1-(3-fluorophenyl)-3-(methylamino)propan-2-ol hydrochloride], the inhibition at 1 µM under setting [1] was 99.5%.

As to `O[C@H]([C@@H]1CCCN1)[C@H](c1cccc(F)c1)n1ccc2ccccc21` [Example 106, (1R,2S)-2-(3-fluorophenyl)-2-(1H-indol-1-yl)-1-[(2S)-pyrrolidin-2-yl]ethanol hydrochloride], the inhibition at 1 µM under setting [2] was 85.8%.

As to `CNC[C@H](O)[C@H](c1ccccc1)n1ccc2ccccc21` (stereo in doubt) [Example 30, (1S,2S)-1-(1H-indol-1-yl)-3-(methylamino)-1-phenylpropan-2-ol hydrochloride], the “% Inhibition @ 1 μM (hNET)” value (hydrochloride, 1 µM) was 79.7%.

Turning to `CNC[C@@H](O)[C@H](c1ccccc1)n1ccc2ccc(Br)cc21` [Example 129, (1S,2R)-1-(6-bromo-1H-indol-1-yl)-3-(methylamino)-1-phenylpropan-2-ol hydrochloride], the inhibition at 1 µM under setting [2] amounted to 71.8%.

In the case of `CNC[C@@H](O)[C@H](c1ccccc1)N1C(=O)C(C)(C)c2cccc(F)c21` [Example 99, 7-fluoro-1-[(1S,2R)-2-hydroxy-3-(methylamino)-1-phenylpropyl]-3,3-dimethyl-1,3-dihydro-2H-indol-2-one hydrochloride], the inhibition at 1 µM under setting [2] was determined as 98.1%.

On to `CNC[C@@H](O)[C@H](c1ccccc1)n1cnc2ccccc21` (racemic) [Example 72, (1RS,2SR)-1-(1H-benzimidazol-1-yl)-3-(methylamino)-1-phenyl propan-2-ol hydrochloride], for which, under setting [2], the inhibition at 1 µM is 24%.

On to `CCc1cn([C@@H](c2cccc(F)c2)[C@H](O)CNC)c2ccccc12` [Example 97, ((1S,2R)-1-(3-fluorophenyl)-3-(methylamino)-1-(3-ethyl-1H-indol-1-yl)propan-2-ol hydrochloride], for which the inhibition at 1 µM under setting [1] was 99.6%.

Turning to `CNC[C@@H](O)[C@H](c1ccccc1)N1C(=O)C2(CC2)c2ccccc21` [Example 109, 1′-[(1S,2R)-2-hydroxy-3-(methylamino)-1-phenylpropyl]spiro-[cyclopropane-1,3′-indol]-2′(1′H)-one hydrochloride], the inhibition at 1 µM under setting [2] came to 94.7%.

On to `CCn1c(=O)n([C@@H](c2ccccc2)[C@H](O)CNC)c2cc(F)ccc21` [Example 206, 1-Ethyl-5-fluoro-3-[(1S,2R)-2-hydroxy-3-(methylamino)-1-phenylpropyl]-1,3-dihydro-2H-benzimidazol-2-one hydrochloride], for which, under setting [1], the inhibition at 1 µM was 96.9%.

For the molecule `CNC[C@@H](O)[C@H](c1ccccc1)n1ccc2cccc(OC)c21` [Example 77, (1S,2R)-1-(7-methoxy-1H-indol-1-yl)-3-(methylamino)-1-phenylpropan-2-ol hydrochloride], under setting [2], the inhibition at 1 µM amounted to 77.3%.

With `CNC[C@@H](O)[C@H](c1cccc(F)c1)n1cc(-c2cccc(F)c2)c2ccccc21` [Example 116, (1S,2R)-1-(3-fluorophenyl)-1-[3-(3-fluorophenyl)-1H-indol-1-yl]-3-(methylamino)propan-2-ol hydrochloride], under setting [2], the inhibition at 1 µM came out at 97.3%.

Regarding `O[C@H](CN1CCOCC1)[C@H](c1cccc(F)c1)n1ccc2ccccc21` [Example 56, (1S,2R)-1-(3-fluorophenyl)-1-(1H-indol-1-yl)-3-morpholin-4-ylpropan-2-ol hydrochloride], the inhibition at 1 µM under setting [2] is 12.3%.

In the case of `CNC[C@@H](O)[C@H](c1cccc(Br)c1)n1ccc2ccccc21` [Example 43, (1S,2R)-1-(3-bromophenyl)-1-(1H-indol-1-yl)-3-(methylamino)propan-2-ol hydrochloride], the inhibition at 1 µM under setting [1] is 99%.

As to `CNC[C@@H](O)[C@H](c1ccccc1)N1CCc2cc(Cl)ccc21` [Example 87, (1S,2R)-1-(5-chloro-2,3-dihydro-1H-indol-1-yl)-3-(methylamino)-1-phenylpropan-2-ol hydrochloride], the inhibition at 1 µM under setting [2] is 99.7%.

On to `CN1CCN(C[C@H](O)[C@@H](c2ccccc2)n2ccc3ccccc32)CC1` [Example 1, 1RS,2SR)-1-(1H-indol-1-yl)-3-(4-methylpiperazin-1-yl)-1-phenyl propan-2-ol dihydrochloride], for which the inhibition at 1 µM under setting [2] was 4.6%.

For `CNC[C@@H](O)[C@H](c1ccccc1)n1ccc2c(F)cccc21` [Example 182, (1S,2R)-1-(4-fluoro-1H-indol-1-yl)-3-(methylamino)-1-phenylpropan-2-ol hydrochloride], the inhibition at 1 µM under setting [2] was 97.1%.

On to `CNC[C@@H](O)[C@H](c1ccccc1)N1C(=O)C(C)(C)c2cc(F)ccc21` [Example 110, 5-fluoro-1-[(1S,2R)-2-hydroxy-3-(methylamino)-1-phenylpropyl]-3,3-dimethyl-1,3-dihydro-2H-indol-2-one hydrochloride], for which, under setting [2], the inhibition at 1 µM is 86.4%.

Regarding `CNC[C@@H](O)[C@H](c1ccc(Cl)cc1)n1ccc2ccccc21` [Example 34, (1S,2R)-1-(4-chlorophenyl)-1-(1H-indol-1-yl)-3-(methylamino)propan-2-ol hydrochloride], the inhibition at 1 µM under setting [1] is 78.4%.

Regarding `CNC[C@@H](O)[C@H](c1cccc(F)c1)n1ccc2ccccc21` [Example 47, (1S,2R)-1-(3-fluorophenyl)-1-(1H-indol-1-yl)-3-(methylamino)propan-2-ol hydrochloride], under setting [1], the inhibition at 1 µM turned out to be 99.9%.

With `CNC[C@@H](O)[C@H](c1ccc(OC(F)(F)F)cc1)n1ccc2ccccc21` (single isomer, unassigned) [Example 40, hydrochloride], the inhibition at 1 µM under setting [2] was 57.6%.

As to `CNC[C@@H](O)[C@H](c1cccc(C#N)c1)n1ccc2ccccc21` [Example 44, 3-[(1S,2R)-2-hydroxy-1-(1H-indol-1-yl)-3-(methylamino)propyl]benzonitrile hydrochloride], under setting [2], the inhibition at 1 µM worked out at 98.2%.

One may read the inhibition as the drop in the measured response relative to a control, in per cent.
